# In ChEMBL document CHEMBL4715813, “Allicin-inspired pyridyl disulfides as antimicrobial agents for multidrug-resistant Staphylococcus aureus” (Eur J Med Chem, 2018):
# The source made the active and inactive calls. The calls are words filed in the database; no cut-off is given here.
# Tested on: Staphylococcus aureus
# Test: Antibacterial activity against vancomycin-resistant Staphylococcus aureus HIP11714 assessed as inhibition of bacterial growth measured between 2 and 4 passages at 0.5 times of MIC incubated for 20 hrs by resistant development assay
# Assay type: functional, organism-based
structure (smiles),measurement,value
CCCCCCCCSSc1ccccn1,Activity,Active
